The assay has as its target T1, Acetylcholinesterase (AChE) (Rattus norvegicus, UniProt P37136).
T1 construct: corpora striata dissected free, weighed and homogenized in 19 volumes; from tissue; host or cells: rat corpora striata (brain) homogenate, male Wistar rats
Kind of assay: In vitro inhibition of acetylcholinesterase activity in rat striatum (modified Ellman method). In kind it is biochemical. The source says:
Cholinesterases are found throughout the body, both in the brain and in serum. However, only brain acetylcholinesterease (AChE) distribution is correlated with central cholinergic innervation. […] We have determined in vitro inhibition of acetylcholinesterase activity in rat striatum according to the method described below.
In Vitro Inhibition of Acetylcholinesterase Activity in Rat Striatum
The method described below was used in this invention for assaying anticholinesterase activity. This is a modification of the method of Ellman et al., Biochem. Pharmacol. 7, 88 (1961).
• A. Reagents - • 1. 0.05 M Phosphate buffer, pH 7.2 • (a) 6.85 g NaH₂PO₄·H₂O/100 mi distilled H₂O • (b) 13.40 g Na₂HPO₄·7H₂O/100 ml distilled H₂O • (c) add (a) to (b) until pH reaches 7.2 • (d) Dilute 1:10 • 2. […] If active, IC₅₀ values are determined from the inhibitory activity of subsequent concentrations. • B. Tissue Preparation - Male Wistar rats are decapitated, brains rapidly removed, corpora striata dissected free, weighed and homogenized in 19 volumes (approximately 7 mg protein/ml) of 0.05 M phosphate buffer, pH 7.2, using a Potter-Elvehjem homogenizer. […] Assay Enzyme activity is measured with the Beckman DU-50 spectrophotometer. […] This program also calculates the rate of absorbance change for each cuvette. […]
A general note: In Ellman's method for cholinesterases, released thiocholine reacts with DTNB.

Like-named read-outs stand apart in the source and are kept apart here.

T1 sequence (P37136 32-614): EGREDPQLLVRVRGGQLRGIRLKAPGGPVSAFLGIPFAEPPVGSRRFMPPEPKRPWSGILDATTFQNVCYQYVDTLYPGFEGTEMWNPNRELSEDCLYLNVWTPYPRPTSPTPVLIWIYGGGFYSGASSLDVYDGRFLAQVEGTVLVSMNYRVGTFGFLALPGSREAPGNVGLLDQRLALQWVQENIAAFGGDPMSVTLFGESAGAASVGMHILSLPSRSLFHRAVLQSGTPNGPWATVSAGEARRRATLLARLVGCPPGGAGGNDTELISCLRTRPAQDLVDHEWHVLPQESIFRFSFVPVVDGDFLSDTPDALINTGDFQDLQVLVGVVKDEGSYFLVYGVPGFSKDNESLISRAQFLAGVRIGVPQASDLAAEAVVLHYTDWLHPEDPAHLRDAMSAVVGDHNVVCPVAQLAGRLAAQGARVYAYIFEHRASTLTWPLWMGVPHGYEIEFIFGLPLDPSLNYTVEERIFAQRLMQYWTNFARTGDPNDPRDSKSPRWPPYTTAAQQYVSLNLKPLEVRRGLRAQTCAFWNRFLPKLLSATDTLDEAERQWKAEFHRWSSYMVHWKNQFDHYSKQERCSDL

For `CNC(=O)Oc1ccc2c(ccn2Cc2ccncc2)c1` [Example 1, 1-(4-Pyridinylmethyl)-1H-indol-5-yl methylcarbamate], the IC50 turned out to be 6.83 µM.

Take `O=C(NCc1ccccc1)Oc1ccc2c(ccn2Cc2ccncc2)c1` [Example 3, 1-(4-Pyridinylmethyl)-1H-indol-5-yl phenylmethylcarbamate]: the IC50 (Brain acetylcholinesterase, rat striatum homogenate, preincubated 10 minutes at 37°C, acetylthiocholine 5 mM final, pH 7.2, read-out: Inhibitory Concentration IC₅₀) came to 12.5 µM.

The record behind these values is patent publication EP0471298B1, “Carbamoyl-1-(pyridinylalkyl)-1H-indoles, indolines and related analogs” (priority 1990, dated 1992).
